Assay results published in ChEMBL document CHEMBL1136043, “Synthesis of (+)-Lasonolide A: (-)-lasonolide A is the biologically active enantiomer” (2002).

Assays:
Assay type in all cases: functional
[1] = tested on: HCT-116; assay: Concentration required for growth inhibition human of human colon cancer cell line HCT116
[2] = tested on: A549; assay: Concentration required for growth inhibition of human lung carcinoma cell line A549
[3] = tested on: NCI-H460; assay: Concentration required for growth inhibition of human lung carcinoma cell line NCI-H460

Compound | GI50 [1] | GI50 [2] | GI50 [3]
C=C(CCC(C)C)COC(=O)[C@@H](O)C/C=C\C[C@@H]1O[C@@H]2/C=C/C/C=C/C(C)=C\[C@H]3O[C@@H](C/C=C/C=C/C(=O)O[C@H](C2)[C@@]1(C)CO)C[C@H](O)[C@H]3C | < 3 nM | 50 nM | 9 nM
C=C(CCC(C)C)COC(=O)[C@H](O)C/C=C/C[C@@H]1O[C@@H]2/C=C/C/C=C/C(C)=C\[C@H]3O[C@@H](C/C=C/C=C/C(=O)O[C@H](C2)[C@@]1(C)CO)C[C@H](O)[C@H]3C | 20 nM | 2000 nM | 40 nM
C=C(CCC(C)C)COC(=O)[C@@H](O)C/C=C\C[C@H]1O[C@H]2/C=C/C/C=C/C(C)=C\[C@@H]3O[C@H](C/C=C/C=C/C(=O)O[C@@H](C2)[C@]1(C)CO)C[C@@H](O)[C@@H]3C | 2000 nM | 6000 nM | 3000 nM
C=C(CCC(C)C)COC(=O)[C@@H](O)C/C=C/C[C@@H]1O[C@@H]2/C=C/C/C=C/C(C)=C\[C@H]3O[C@@H](C/C=C/C=C/C(=O)O[C@H](C2)[C@@]1(C)CO)C[C@H](O)[C@H]3C | 40 nM | 3200 nM | 100 nM
C=C(CCC(C)C)COC(=O)[C@@H](O)C/C=C\C[C@@H]1O[C@@H]2/C=C\C/C=C/C(C)=C\[C@H]3O[C@@H](C/C=C/C=C/C(=O)O[C@H](C2)[C@@]1(C)CO)C[C@H](O)[C@H]3C | 5000 nM | > 10000 nM | 5000 nM
C=C(CCC(C)C)COC(=O)[C@H](O)C/C=C\C[C@@H]1O[C@@H]2/C=C/C/C=C/C(C)=C\[C@H]3O[C@@H](C/C=C/C=C/C(=O)O[C@H](C2)[C@@]1(C)CO)C[C@H](O)[C@H]3C [LASONOLIDE A] | < 3 nM | 20 nM | < 3 nM
